From patent publication US12466840B2, “Small molecule inhibitors of KRAS proteins” (Merck Sharp & Dohme LLC, priority 2023, dated 2025)

Assays:
Format in all cases: biochemical
[1] = biological target: KRAS G12C (Homo sapiens (Human), UniProt P01116, C118S/C51S/C80L/G12C); assay: SOS-catalyzed nucleotide exchange assay (GNE), KRAS G12C; details: TR-FRET, 60 min preincubation; protein with C51S/C80L/C118S
From the text: (§1) Procedure for SOS-Catalyzed Nucleotide Exchange Assay for KRAS-WT, G12C/D/V/A/R/S, G13D, Q61H, HRAS-WT, and NRAS-WT
(§2) Recombinant KRAS-G12C protein used in this assay has an additional triple mutation (C51S/C80L/C118S). Whereas KRAS-WT, G12D/V/A/S/R, G13D, Q61H, HRAS and NRAS are in context of their WT protein sequence background. Specifically, the SOS-catalyzed nucleotide exchange assay utilizes a preformed TR-FRET complex containing a specific biotinylated RAS protein (KRAS-WT, G12C/V/D/A/S/R, G13D, Q61H, HRAS-WT, NRAS-WT; described above) with Bodipy-GDP, and Terbium-streptavidin. Compounds are preincubated with this complex for 60 minutes. Subsequently, recombinant human SOS protein and unlabeled GTP are added to initiate the exchange reaction. Small molecule inhibitors stabilize the Bodipy-GDP complex whereas the untreated protein rapidly exchanges Bodipy-GDP for unlabeled GTP resulting in reduced TR-FRET signal.
(§3) To assemble the preformed TR-FRET complexes, each biotinylated RAS protein is diluted to 2 μM in an EDTA Buffer (20 mM HEPES pH 7.5, 50 mM sodium chloride, 10 mM EDTA, and 0.01% Tween) and incubated at room temperature for one hour. This mixture is then further diluted to 90 nM in an Assay Buffer (20 mM HEPES pH 7.5, 150 mM sodium chloride, 10 mM magnesium chloride, and 0.005% Tween) containing 15 nM of Terbium-Streptavidin (Invitrogen, catalog #PV3577) and 900 nM of Bodipy-GDP (Invitrogen, catalog #G22360) and incubated at room temperature for six hours. It should be noted that this preformed TR-FRET complex for each of the RAS protein were made ahead of time, aliquoted and stored at −80° C. until the day of the experiment.
(§4) Each test compound (10 mM stock in DMSO) is diluted in DMSO to make a final-10-point, 3-fold dilution and is acoustically dispensed into a 384-well assay plate (Corning, catalog #3820) using an Echo 550 (Labcyte). Each well of the assay plate receives 3 μL of a specific 3×RAS preformed TR-FRET complex and 3 μL of Assay Buffer and is incubated at room temperature for 60 minutes (preincubation time). Each well then receives 3 μL of 3× recombinant human SOS protein and GTP (Sigma, G8877) in Assay Buffer and is incubated at room temperature for 30 minutes (G13D), 60 minutes (KRAS WT/G12C/D, H/NRAS) or 90 minutes for G12A/R/S/V and Q61H. The final reaction in each well of 9 μL consists of 3 mM GTP, specific Ras and SOS proteins in the following concentrations: KRAS-G12C/SOS=3 nM/40 nM, KRAS-WT and G12D/SOS=1 nM/40 nM, KRAS-G12V/SOS=1.25 nM/160 nM, KRAS-G12A/S/SOS=1 nM/160 nM, KRAS-G12R/SOS=1 nM/320 nM, KRAS-Q61H/SOS=1 nM/320 nM, KRAS-G13D/SOS=1.25 nM/[…], HRAS-WT and NRAS-WT=1.25 nM/40 nM.
(§5) The time-resolved fluorescence resonance energy transfer (TR-FRET) signal is measured on an Envision (PerkinElmer) plate reader: Excitation filter=340 nm; emission1=495 nm; emission2=520 nm; dichroic mirror=D400/D505; delay time=[…]. The signal of each well is determined as the ratio of the emission at 520 nm to that at 495 nm. Percent effect of each well is determined after normalization to control wells containing DMSO (no effect) or a saturating concentration of inhibitor (max effect). The apparent effect as a function of compound concentration is fit to a four-parameter logistic equation.

[2] = biological target: KRAS G12V (Homo sapiens (Human), UniProt P01116, G12V); assay: SOS-catalyzed nucleotide exchange assay (GNE), KRAS G12V; details: TR-FRET, 60 min preincubation
Chain of KRAS G12V (P01116 other isoform, or with tags, fused parts or gaps G12V (already in the parent)): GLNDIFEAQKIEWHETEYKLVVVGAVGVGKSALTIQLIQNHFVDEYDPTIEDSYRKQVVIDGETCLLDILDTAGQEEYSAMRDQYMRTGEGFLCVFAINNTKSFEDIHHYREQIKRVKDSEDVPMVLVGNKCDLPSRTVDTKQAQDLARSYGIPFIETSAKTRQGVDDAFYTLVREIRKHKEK
From the text: as §1, §2, §3, §4, §5

[3] = biological target: HRAS (Homo sapiens (Human), UniProt P01112); assay: SOS-catalyzed nucleotide exchange assay (GNE), HRAS-WT; details: TR-FRET, 60 min preincubation
Chain of HRAS (P01112 other isoform, or with tags, fused parts or gaps): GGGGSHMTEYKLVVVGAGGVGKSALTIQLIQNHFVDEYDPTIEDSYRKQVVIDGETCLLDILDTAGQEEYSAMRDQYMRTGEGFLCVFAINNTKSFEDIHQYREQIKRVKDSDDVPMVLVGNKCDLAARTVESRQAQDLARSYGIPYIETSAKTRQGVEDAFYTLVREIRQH
From the text: as §1, §2, §3, §4, §5

Chain of KRAS G12C (P01116 other isoform, or with tags, fused parts or gaps, stated change not applied): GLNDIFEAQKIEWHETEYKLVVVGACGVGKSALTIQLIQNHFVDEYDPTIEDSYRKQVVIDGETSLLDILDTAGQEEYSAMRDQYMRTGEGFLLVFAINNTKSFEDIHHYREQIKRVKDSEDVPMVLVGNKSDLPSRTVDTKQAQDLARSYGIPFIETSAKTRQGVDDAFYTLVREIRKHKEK

SMILES | IC50 [1] [nM] | IC50 [2] [nM] | IC50 [3] [nM]
F/C=C1/CN2CCC[C@@]2(COc2nc3c4c(nc(-c5c(C6CC6)c(Cl)cc6[nH]ncc56)c(F)c4n2)OC[C@@H]2COCCCN32)C1 [Ex-1, (8aS)-5-(6-chloro-5-cyclopropyl-1H-indazol-4-yl)-4-fluoro-2-(((S,Z)-2-(fluoromethylene)tetrahydro-1H-pyrrolizin-7a(5H)-yl)methoxy)-8a,9,12,13-tetrahydro-8H,11H-7,10-dioxa-1,3,6,13a-tetraazanaphtho[1,8-ab]heptalene] | 6.9 | 1.3 | > 11100
CCc1c(F)ccc2cc3[nH]ncc3c(-c3nc4c5c(nc(OC[C@@]67CCCN6C[C@H](F)C7)nc5c3F)N3CCCOC[C@H]3CO4)c12 [Ex-2, (8aS)-5-(5-ethyl-6-fluoro-1H-benzo[f]indazol-4-yl)-4-fluoro-2-(((2R,7aS)-2-fluorotetrahydro-1H-pyrrolizin-7a(5H)-yl)methoxy)-8a,9,12,13-tetrahydro-8H,11H-7,10-dioxa-1,3,6,13a-tetraazanaphtho[1,8-ab]heptalene] | 3.2 | 1.3 | 2740
Fc1c(-c2c(C3CC3)c(Cl)cc3[nH]ncc23)nc2c3c(nc(OC[C@@]45CCCN4C[C@H](F)C5)nc13)N1CCCOC[C@H]1CO2 [Ex-3, (8aS)-5-(6-chloro-5-cyclopropyl-1H-indazol-4-yl)-4-fluoro-2-(((2R,7aS)-2-fluorotetrahydro-1H-pyrrolizin-7a(5H)-yl)methoxy)-8a,9,12,13-tetrahydro-8H,11H-7,10-dioxa-1,3,6,13a-tetraazanaphtho[1,8-ab]heptalene] |  | 3 | 
CCc1c(F)ccc2cc3[nH]ncc3c(-c3nc4c5c(nc(OC[C@@]67CCCN6C/C(=C\F)C7)nc5c3F)N3CCCOC[C@H]3CO4)c12 [Ex-4, (8aS)-5-(5-ethyl-6-fluoro-1H-benzo[f]indazol-4-yl)-4-fluoro-2-(((S,Z)-2-(fluoromethylene)tetrahydro-1H-pyrrolizin-7a(5H)-yl)methoxy)-8a,9,12,13-tetrahydro-8H,11H-7,10-dioxa-1,3,6,13a-tetraazanaphtho[1,8-ab]heptalene] | 2.9 | 0.83 | 1270
F/C=C1\CN2CCC[C@@]2(COc2nc3c4c(nc(-c5c(C6(F)CC6)c(Cl)cc6[nH]ncc56)c(F)c4n2)OC[C@@H]2COCCCN32)C1 [Ex-5, (8aS)-5-(6-chloro-5-(1-fluorocyclopropyl)-1H-indazol-4-yl)-4-fluoro-2-(((S,Z)-2-(fluoromethylene)tetrahydro-1H-pyrrolizin-7a(5H)-yl)methoxy)-8a,9,12,13-tetrahydro-8H,11H-7,10-dioxa-1,3,6,13a-tetraazanaphtho[1,8-ab]heptalene] | 3.3 | 0.98 | 4680
CCc1c(F)ccc2cc3[nH]nc(C)c3c(-c3nc4c5c(nc(OC[C@@]67CCCN6C[C@H](F)C7)nc5c3F)N3CCCOC[C@H]3CO4)c12 [Ex-6, (8aS)-5-(5-ethyl-6-fluoro-3-methyl-1H-benzo[f]indazol-4-yl)-4-fluoro-2-(((2R,7aS)-2-fluorotetrahydro-1H-pyrrolizin-7a(5H)-yl)methoxy)-8a,9,12,13-tetrahydro-8H,11H-7,10-dioxa-1,3,6,13a-tetraazanaphtho[1,8-ab]heptalene] | 6.5 | 1.5 | 5520
CCc1c(F)ccc2cc3[nH]nc(C)c3c(-c3nc4c5c(nc(OC[C@@]67CCCN6C/C(=C\F)C7)nc5c3F)N3CCCOC[C@H]3CO4)c12 [Ex-7, (8aS)-5-(5-ethyl-6-fluoro-3-methyl-1H-benzo[f]indazol-4-yl)-4-fluoro-2-(((S,Z)-2-(fluoromethylene)tetrahydro-1H-pyrrolizin-7a(5H)-yl)methoxy)-8a,9,12,13-tetrahydro-8H,11H-7,10-dioxa-1,3,6,13a-tetraazanaphtho[1,8-ab]heptalene] | 11 | 2.8 | 2180
